Measured values as given in patent US4753881A, “Purified enzyme and process therefor” (Eli Lilly and Company, priority 1986, dated 1988).

What was measured:
[1] = target: T1, deacetoxycephalosporin C synthetase (expandase) (Hapsidospora chrysogena, UniProt P11935); test: Enzyme activity assay (HPLC): expandase-catalyzed reaction, DAOC plus DAC from penicillin N; format: biochemical, Cephalosporium acremonium; settings: for Maximal reactivation/stimulation of expandase activity, initial to final activity: DTT 1.0 mM, ascorbate 0.25 mM, ATP 0.05 mM, purified enzyme (step 3); for Effect on expandase function of the purified enzyme: present in the incubation mixture
T1 construct: prepared by sonicating fresh cell suspensions of Cephalosporium acremonium in buffer at pH 7-8; endogenous in cells; host or cells: Cephalosporium acremonium cells (crude cell extract, then chromatographic purification)
T1 sequence (P11935 1-332): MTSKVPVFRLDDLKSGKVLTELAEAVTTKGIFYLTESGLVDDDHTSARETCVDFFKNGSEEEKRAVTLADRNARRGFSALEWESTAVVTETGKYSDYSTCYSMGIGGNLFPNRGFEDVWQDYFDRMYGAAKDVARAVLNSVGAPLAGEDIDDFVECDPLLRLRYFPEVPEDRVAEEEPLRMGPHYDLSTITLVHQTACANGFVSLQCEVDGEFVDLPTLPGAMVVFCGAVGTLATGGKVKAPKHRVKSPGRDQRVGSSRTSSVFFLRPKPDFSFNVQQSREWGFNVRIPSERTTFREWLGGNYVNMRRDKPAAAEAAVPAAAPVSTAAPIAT
Excerpt: (§1) The activity of the enzyme, which is a reflection of its purity, is expressed herein in units (U) of activity. One unit of expandase activity is defined as the amount of the enzyme required to cause formation of 1 μmole of DAOC plus DAC per minute from penicillin N. One unit of hydroxylase activity is defined as the amount of enzyme required to cause formation of 1 μmole of DAC per minute from DAOC.
(§2) The purity of the enzyme and the extent of purification during the course of the process can be measured by determining the expandase and hydroxylase activities of the chromatographic fractions via high performance liquid chromatography (HPLC) and by analyzing protein bands of chromatographic fractions via SDS-PAGE. The expandase-catalyzed reaction is conducted for 15 minutes at 30° C. with 0.28 mM penicillin N, 0.60 mM α-ketoglutarate (αKG), 0.06 mM ferrous sulfate, […], 1.00 mM dithiothreitol, 0.05 mM ATP and 0.0003-0.003 units of the enzyme in 1 ml of 50 mM Tris-HCl, pH 7.5. The hydroxylase-catalyzedreaction is conducted at 36° C. in the same medium with deacetoxycephalosporin C at a concentration of 0.05 mM instead of penicillin N.
(§3) The enzymatic reactions were interrupted by the addition of 1 ml of ethyl alcohol. The precipitate is separated by centrifugation at 4,000×g for 5 minutes and the supernatant containing the enzyme reaction products assayed by HPLC as follows. The expandase activity is determined by monitoring formation of both DAOC and DAC from penicillin N because of the apparent bifunctionality of the enzyme. The hydroxylase activity is determined by monitoring the formation of DAC from DAOC.
(§4) Aliquots (20 to 100 μl ) of the supernatant solutions are assayed for DAOC and DAC by HPLC using external standards.
(§5) A preferred HPLC system comprises the components: Model 721 system controller, Model 730 data module, Model 510EF pumps, Model 710B Waters Intelligent Sample Processor and a Lambda-Max Model 481 LC spectrophotometer (Waters Assoc., Milford, Mass.). DAC and DAOC are preferably separated by a radially packed compressed μBondapak-NH4column (0.8×10 cm) (Waters Assoc.) with a mobile phase of 2% acetic acid-0-4% methyl alcohol-6-7% acetonitrile-87-92% water; pH 3.8, a flow rate of 1.5-2.0 ml/min. and detection at 260 nm (cephalosporin chromophore). The assays are reproducible with 2% deviations for duplicate analyses of both the expandase and the hydroxylase catalyzed reactions.
For expandase assays, quantitation for DAC (in addition to that of DAOC) is corrected for penicillin N due to their coelution.

[2] = target: T2, hydroxylase activity of the expandase-hydroxylase enzyme (Hapsidospora chrysogena, UniProt P11935); test: Enzyme activity assay (HPLC): hydroxylase-catalyzed reaction, DAC from DAOC; format: biochemical, Cephalosporium acremonium; settings: for Maximal reactivation/stimulation of hydroxylase activity, initial to final activity: DTT 1.0 mM, ascorbate 0.25 mM, ATP 0.05 mM, purified enzyme (step 3); for Effect on hydroxylase function of the purified enzyme: present in the incubation mixture
T2 construct: prepared by sonicating fresh cell suspensions of Cephalosporium acremonium in buffer at pH 7-8; endogenous in cells; host or cells: Cephalosporium acremonium cells (crude cell extract, then chromatographic purification)
T2 sequence (P11935 1-332): T1 sequence (P11935 1-332)
Excerpt: as §1, §2, §3, §4
as §5, with “reactions. […]” for “reactions.”

| Reactivation of hydroxylase activity [2] | Maximal reactivation/stimulation of hydroxylase activity, initial to final activity [2] [U × 10^-3] | Effect on hydroxylase function of the purified enzyme [2] | Structure (SMILES) | Reactivation of expandase activity [1] | Maximal reactivation/stimulation of expandase activity, initial to final activity [1] [U × 10^-3] | Effect on expandase function of the purified enzyme [1] |
| --- | --- | --- | --- | --- | --- | --- |
| reversibly reactivated | 0 to 0.23 | stimulated | O[C@H](CS)[C@H](O)CS (racemic) [DTT, dithiothreitol] | reversibly reactivated | 0 to 50 | stimulated |
| reversibly reactivated | 0 to 0.81 | stimulated | O=C1O[C@H]([C@@H](O)CO)C(O)=C1O [Ascorbate] | reversibly reactivated | 0 to 90 | stimulated |

Continued, molecule first:

| Structure (SMILES) | Reactivation of hydroxylase activity [2] | Maximal reactivation/stimulation of hydroxylase activity, initial to final activity [2] [U × 10^-3] | Effect on hydroxylase function of the purified enzyme [2] | Reactivation of expandase activity [1] | Maximal reactivation/stimulation of expandase activity, initial to final activity [1] [U × 10^-3] | Effect on expandase function of the purified enzyme [1] |
| --- | --- | --- | --- | --- | --- | --- |
| O=C(O)c1cc(SSc2ccc([N+](=O)[O-])c(C(=O)O)c2)ccc1[N+](=O)[O-] [5,5'-dithiobis-2-nitrobenzoic acid] |  |  | inhibited |  |  | inhibited |
| Nc1ncnc2c1ncn2[C@@H]1O[C@H](COP(=O)(O)OP(=O)(O)OP(=O)(O)O)[C@@H](O)[C@H]1O [ATP] |  | 0.57 to 0.61 | stimulated |  | 38 to 52 | stimulated |
| [Zn+2] [zinc ion] |  |  | inhibited |  |  | inhibited |
